Measurements as given in article PMC12395807, “Chemoreceptor family in plant-associated bacteria responds preferentially to the plant signal molecule glycerol 3-phosphate” (Genome Biology, 2025).

Columns and labels:
[1] = system: P. atrosepticum SCRI1043; experiment: Quantitative capillary chemotaxis assay, wild type; format: cell-based, Pectobacterium atrosepticum; settings: wild type SCRI1043, 1 mM ligand, 30 min
Experimental: (§1) Overnight cultures of P. atrosepticum SCRI1043 were grown at 30 °C in minimal medium. At an OD660 of 0.4–0.45, the cultures were washed twice with chemotaxis buffer (50 mM K2HPO4/KH2PO4, 20 μM EDTA, 0.05% (v/v) glycerol, pH 7.0) and diluted to an OD660 of 0.1 in the same buffer. Subsequently, 230 μL of the resulting bacterial suspension was placed into the wells of 96-well plates. One-microliter capillary tubes (P1424, Microcaps; Drummond Scientific) were heat-sealed at one end and filled with either chemotaxis buffer (negative control) or chemotaxis buffer containing PacP ligands at a concentration of 1 mM. The capillaries were immersed in the bacterial suspensions at their open ends. After 30 min at room temperature, the capillaries were removed from the bacterial suspensions, rinsed with sterile water, and the contents were expelled into 1 mL of 40 mM K2HPO4, 15 mM KH2PO4. Serial dilutions were plated onto minimal medium supplemented with 15 mM glucose as the carbon source. The number of colony-forming units was determined after 36 h of incubation at 30 °C. In all the cases, the data were corrected with the number of cells that swam into the buffer-containing capillaries.

[2] = molecular target: LBD of chemoreceptor R10 (WP_028866120.1); experiment: ITC binding to R10-LBD; design: species or system Psychromonas aquimarina; settings: 20 °C, Nb = no binding
Experimental: (§2) Plasmids for the overexpression of the different proteins were transformed into E. coli BL21(DE3). The resulting strains were grown under continuous stirring (200 rpm) at 30 °C in 2-L Erlenmeyer flasks containing 500 mL of LB medium supplemented with 50 μg/mL kanamycin. At an OD660 of 0.5, protein expression was induced by the addition of 0.1 mM isopropyl β-D-1-thiogalactopyranoside. Growth was continued at 16 °C overnight prior to cell harvesting by centrifugation at 10,000 × g for 20 min. Cell pellets were resuspended in buffer A (Additional file 2: Table S4) and subsequently broken by French press treatment at 62.5 lb/in^2. After centrifugation at 20,000 × g for 30 min, the supernatants were loaded onto 5-mL HisTrap HP columns (Amersham Biosciences) equilibrated with buffer A, and the proteins were eluted with a linear gradient of buffer B (Additional file 2: Table S4). All proteins contain a hexa-histidine tag at the N-terminal extension (Additional file 2: Table S3) and were purified at 4 °C. The purified proteins were dialyzed overnight into the corresponding analysis buffers (Additional file 2: Table S4) for immediate analysis.
(§3) All experiments were conducted on a VP microcalorimeter (Microcal, MA) at 15 °C for PacP-LBD and at 20 °C for the remaining proteins. Proteins were dialyzed into the analysis buffers specified in Additional file 2: Table S4, placed into the sample cell and titrated with aliquots of ligand solutions (1 to 10 mM) freshly prepared in dialysis buffer. The mean enthalpies measured from the injection of the ligands into the analysis buffer were subtracted from the raw titration data prior to data analysis with the MicroCal version of ORIGIN. The data were fitted with the “One binding site model” of ORIGIN.

[3] = molecular target: LBD of chemoreceptor R5 (WP_028444678.1); experiment: ITC binding to R5-LBD; design: species or system Chitinimonas koreensis; settings: 20 °C, Nb = no binding
Experimental: as §2, §3

[4] = molecular target: LBD of chemoreceptor R7 (WP_019915375.1); experiment: ITC binding to R7-LBD; design: species or system Methyloversatilis discipulorum; settings: 20 °C, Nb = no binding
Experimental: as §2, §3

[5] = system: P. atrosepticum SCRI1043 ΔcheA; experiment: Quantitative capillary chemotaxis assay, cheA mutant; format: cell-based, Pectobacterium atrosepticum; settings: 1 mM ligand
Experimental: as §1
Fig. S2) Quantitative capillary chemotaxis assays of different P. atrosepticum SCRI1043 strains to 1 mM Glycerol 3-phosphate (A) and 3-phosphoglycerate (B). […]

[6] = molecular target: LBD of chemoreceptor R4 (WP_158281851.1) (Rivihabitans pingtungensis, UniProt A0A318KJN4); experiment: ITC binding to R4-LBD; design: species or system Rivicola pingtungensis; settings: 20 °C, Nb = no binding
Experimental: as §2, §3

[7] = system: Pectobacterium atrosepticum SCRI1043; experiment: Growth experiment, sole phosphorus source; format: cell-based; settings: PFM9 minimal medium, 5 mM ligand, 30 °C, 48 h
Experimental: P. atrosepticum SCRI1043 was cultured overnight in phosphate-free M9-based medium (PFM9) supplemented with 20 mM glucose as the carbon source and 500 µM inorganic phosphate as the phosphate source. Cultures were washed and then diluted to an OD600 of 0.02 in PFM9 supplemented with different PacP ligands as the sole carbon or phosphorous source at a final concentration of 5 mM. Subsequently, 200 µL aliquots of these cultures were transferred into microwell plates, which were subsequently grown at 30 °C on a Bioscreen microbiological growth analyzer (Oy Growth Curves Ab Ltd., Helsinki, Finland) for 48 h.

[8] = system: Bacillus subtilis; design: method as in PMID 119030, PMID 500565; settings: cited from earlier work
[9] = molecular target: ligand binding domain of the chemoreceptor ECA_RS12390 (PacP-LBD, R1, WP_011094075.1) (Pectobacterium atrosepticum, UniProt Q6D464); experiment: ITC binding to PacP-LBD; settings: 15 °C, Nb = no binding
Experimental: as §2, §3

Sequence of LBD of chemoreceptor R7 (WP_019915375.1) (as listed by the source): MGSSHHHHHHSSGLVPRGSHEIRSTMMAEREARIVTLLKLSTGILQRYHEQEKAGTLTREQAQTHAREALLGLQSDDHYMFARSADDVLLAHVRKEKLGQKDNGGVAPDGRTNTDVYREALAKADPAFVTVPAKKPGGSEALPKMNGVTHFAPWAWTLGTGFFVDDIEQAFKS
Sequence of LBD of chemoreceptor R4 (WP_158281851.1) (A0A318KJN4 entry or part of it): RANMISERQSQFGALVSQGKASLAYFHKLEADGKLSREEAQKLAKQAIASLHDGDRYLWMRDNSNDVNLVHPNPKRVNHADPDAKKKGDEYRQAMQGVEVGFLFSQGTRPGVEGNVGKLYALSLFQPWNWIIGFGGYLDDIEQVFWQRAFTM
Sequence of ligand binding domain of the chemoreceptor ECA_RS12390 (PacP-LBD, R1, WP_011094075.1) (Q6D464 entry or part of it): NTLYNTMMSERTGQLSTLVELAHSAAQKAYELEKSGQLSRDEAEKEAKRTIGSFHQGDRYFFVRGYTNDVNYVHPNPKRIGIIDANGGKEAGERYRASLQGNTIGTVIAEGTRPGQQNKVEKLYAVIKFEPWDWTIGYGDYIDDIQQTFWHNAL

| Structure (SMILES) | chemotaxis (capillary assay) [1] | KD [2] | KD [3] | KD [4] | chemotaxis (capillary assay) [5] | Kd [6] [µM] | growth as sole phosphorus source [7] | chemotaxis [8] | Kd [9] [µM] | chemotaxis (capillary assay) ([1]; listed as Glycerol 3-phosphate) | KD ([4]; listed as Glycerol 3-P) |
| --- | --- | --- | --- | --- | --- | --- | --- | --- | --- | --- | --- |
| O=C(O)[C@@H](O)COP(=O)(O)O [3-phosphoglycerate] | significantly greater | Nb | Nb | Nb | failed to respond | 926 ± 8 | permitted growth | weak chemotaxis | 88 ± 5 |  |  |
| O=P(O)(O)OCC(O)CO (centres unmarked) [glycerol 3-phosphate] | significantly greater | Nb | Nb | bound | failed to respond | 7 ± 0.2 | supported growth | weak chemotaxis | 3 ± 0.2 | strongest chemotaxis | Nb |
